The record followed here is patent US10047051B2, “Substituted pyridines and method of use” (AbbVie S.á{acute over (.)}r.l., priority 2015, dated 2018).

For orientation: pEC50 means the EC50 on a negative log10 scale, so that one unit is a factor of ten.

Common to all, as to format: cell-based
One experiment has as its target T1, CFTR G551D mutant (Homo sapiens, UniProt P13569, G551D).
T1 construct: expressed in transfected cells; host or cells: HEK293 cells, reverse transfection with plasmids
Briefly: YFP-halide influx assay for the CFTR-G551D mutation (HEK293 cells). The following applies: forskolin 10.67 μM. An outline of the steps: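 Channel opening read as I⁻-driven quenching of a YFP H148Q/I152L/F47L reporter over 7 s post-injection, expressed as 1−F/F0 and fitted against concentration for EC50. Cells were HEK293 co-transfected at seeding with G551D CFTR plus reporter, then grown 24 h at 37 °C, 5% CO2.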

The next experiment concerns the target T2, CFTR ΔF508 mutant (Homo sapiens, UniProt P13569, DEL508-508).
T2 construct: expressed in transfected cells; host or cells: CFBE41o- cells, adenoviral transduction
In words: YFP-halide influx assay for the CFTR-ΔF508 mutation (CFBE41o- cells). The following applies: forskolin 10.67 μM; for pEC50: from (1−F/F0) vs concentration plot. An outline of the steps:
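EC50 derived from plotting 1−F/F0 (fluorescence 36 s after iodide injection over pre-injection value) against compound concentration. Cells: CFBE41o- transduced with ΔF508-CFTR and YFP quench reporter, corrected 24 h at 27° C or by a CFTR modulator at 37° C.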

The target of the next experiment is T3, CFTR-G178R (Homo sapiens, UniProt P13569, G178R).
T3 construct: expressed in transfected cells
T3 sequence (P13569 whole entry G178R): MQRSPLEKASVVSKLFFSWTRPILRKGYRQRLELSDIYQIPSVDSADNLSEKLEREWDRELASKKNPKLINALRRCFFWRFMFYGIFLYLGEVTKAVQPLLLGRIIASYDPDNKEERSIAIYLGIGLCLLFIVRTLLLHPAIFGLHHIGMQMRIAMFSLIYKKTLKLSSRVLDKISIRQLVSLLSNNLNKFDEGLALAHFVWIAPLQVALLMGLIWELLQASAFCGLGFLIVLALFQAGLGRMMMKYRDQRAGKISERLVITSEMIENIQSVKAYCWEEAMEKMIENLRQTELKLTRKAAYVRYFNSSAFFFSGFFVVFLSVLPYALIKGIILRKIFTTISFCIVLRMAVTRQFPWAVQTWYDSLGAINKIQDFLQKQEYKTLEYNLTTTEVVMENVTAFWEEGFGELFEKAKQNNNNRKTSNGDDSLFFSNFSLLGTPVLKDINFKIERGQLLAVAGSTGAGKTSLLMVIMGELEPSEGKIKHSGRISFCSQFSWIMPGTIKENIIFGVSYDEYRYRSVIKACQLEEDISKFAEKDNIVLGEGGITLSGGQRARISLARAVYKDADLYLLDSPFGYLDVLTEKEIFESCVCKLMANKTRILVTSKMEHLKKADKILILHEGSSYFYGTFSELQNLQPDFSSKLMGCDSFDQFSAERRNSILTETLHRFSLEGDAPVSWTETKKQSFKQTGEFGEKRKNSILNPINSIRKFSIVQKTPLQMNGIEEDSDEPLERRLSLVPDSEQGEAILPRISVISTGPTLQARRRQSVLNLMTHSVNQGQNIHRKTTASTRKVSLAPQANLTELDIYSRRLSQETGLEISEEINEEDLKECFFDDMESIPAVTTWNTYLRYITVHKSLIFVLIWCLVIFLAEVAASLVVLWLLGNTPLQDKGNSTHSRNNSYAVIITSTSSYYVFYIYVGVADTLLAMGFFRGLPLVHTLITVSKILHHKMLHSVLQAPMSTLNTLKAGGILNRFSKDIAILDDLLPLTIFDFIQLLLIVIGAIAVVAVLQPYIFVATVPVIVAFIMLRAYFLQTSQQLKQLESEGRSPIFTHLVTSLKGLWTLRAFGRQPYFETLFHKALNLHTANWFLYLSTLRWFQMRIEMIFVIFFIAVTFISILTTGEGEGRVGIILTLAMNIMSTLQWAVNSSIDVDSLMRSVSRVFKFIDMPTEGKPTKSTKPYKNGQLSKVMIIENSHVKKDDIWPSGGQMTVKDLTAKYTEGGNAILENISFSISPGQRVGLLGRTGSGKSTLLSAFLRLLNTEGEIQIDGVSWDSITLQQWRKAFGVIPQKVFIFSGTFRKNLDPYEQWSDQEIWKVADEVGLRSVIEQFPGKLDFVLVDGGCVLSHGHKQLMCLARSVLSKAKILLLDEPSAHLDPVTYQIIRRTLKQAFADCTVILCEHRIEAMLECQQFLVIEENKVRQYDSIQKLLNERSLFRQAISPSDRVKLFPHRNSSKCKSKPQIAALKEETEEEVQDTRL
Briefly: YFP-halide influx assay for the CFTR-G178R. An excerpt: (§1) The YFP halide influx assay measured the functionality of the cystic fibrosis Transmembrane Conductance regulator (CFTR) channels. The assay was used to evaluate the capacity of compounds to increase the channel opening of existing mutant CFTR channels in the membrane. It makes use of the observation that the yellow fluorescent protein (YFP) variant YFP H148Q, I152L, F47L has its fluorescence substantially quenched by halide ions like Cl^− and I^− (Galietta, L. J. V., Haggie, P. M., Verkman, A. S., 2001. Green fluorescent protein-based halide indicators with improved chloride and iodide affinities. FEBS Lett. 499, 220-224. doi:10.1016/S0014-5793(01)02561-3).
(§2) For this purpose, HEK293-cells were seeded in 96 well plates. During seeding, the cells were reverse-transfected with plasmid vectors that direct the expression of the CFTR G551D mutant and of the YFP reporter. Cells were incubated at 37° C., 5% CO2 for 24 hours so as to allow for sufficient expression of the CFTR protein.
(§3) The I^−-induced quenching of fluorescence was recorded immediately after injection of I^− for 7 seconds. The capacity of a compound to increase the channel opening was directly correlated with the decrease in fluorescence, and was expressed as (1−(fluorescence after 7 seconds (F)/fluorescence before injection (F0))) and an EC50 was derived from a (1−F/F0) vs compound concentration plot.
(§4) Similar YHA assays were developed for other channel gating defective or channel conductance defective CFTR mutants to determine effect of compound on channel activity. Examples of mutants are G178R, G1349D, S549N, R117H, R334W. This assay is also used for additional class I CFTR mutants, including G542X, W1282X; class II mutants including N1303K, and for class III mutants including S1251N; or wild-type CFTR.

The target of a further experiment is T4, CFTR-R117H (Homo sapiens, UniProt P13569, R117H).
T4 construct: expressed in transfected cells
T4 sequence (P13569 whole entry R117H): as the sequence (P13569 whole entry G178R) above, with R117H, R178G counted along it
In words: YFP-halide influx assay for the CFTR-R117H.
Text: as §1, §2, §3, §4

A further experiment addresses T5, CFTR-S549N (Homo sapiens, UniProt P13569, S549N).
T5 construct: expressed in transfected cells
In words: YFP-halide influx assay for the CFTR-S549N. Also on record: % Activation: concentration or dose not given beside the values.
Text: as §1, §2, §3, §4

In a further experiment the target is T6, CFTR-G1349D (Homo sapiens, UniProt P13569, G1349D).
T6 construct: expressed in transfected cells
T6 sequence (P13569 whole entry G1349D): as the sequence (P13569 whole entry G178R) above, with R178G, G1349D counted along it
Briefly: YFP-halide influx assay for the CFTR-G1349D.
Text: as §1, §2, §3, §4

Structures are written as SMILES. pEC50: −log10 of the molar value.

T2 sequence (P13569 with tags, fused parts or gaps DEL508-508): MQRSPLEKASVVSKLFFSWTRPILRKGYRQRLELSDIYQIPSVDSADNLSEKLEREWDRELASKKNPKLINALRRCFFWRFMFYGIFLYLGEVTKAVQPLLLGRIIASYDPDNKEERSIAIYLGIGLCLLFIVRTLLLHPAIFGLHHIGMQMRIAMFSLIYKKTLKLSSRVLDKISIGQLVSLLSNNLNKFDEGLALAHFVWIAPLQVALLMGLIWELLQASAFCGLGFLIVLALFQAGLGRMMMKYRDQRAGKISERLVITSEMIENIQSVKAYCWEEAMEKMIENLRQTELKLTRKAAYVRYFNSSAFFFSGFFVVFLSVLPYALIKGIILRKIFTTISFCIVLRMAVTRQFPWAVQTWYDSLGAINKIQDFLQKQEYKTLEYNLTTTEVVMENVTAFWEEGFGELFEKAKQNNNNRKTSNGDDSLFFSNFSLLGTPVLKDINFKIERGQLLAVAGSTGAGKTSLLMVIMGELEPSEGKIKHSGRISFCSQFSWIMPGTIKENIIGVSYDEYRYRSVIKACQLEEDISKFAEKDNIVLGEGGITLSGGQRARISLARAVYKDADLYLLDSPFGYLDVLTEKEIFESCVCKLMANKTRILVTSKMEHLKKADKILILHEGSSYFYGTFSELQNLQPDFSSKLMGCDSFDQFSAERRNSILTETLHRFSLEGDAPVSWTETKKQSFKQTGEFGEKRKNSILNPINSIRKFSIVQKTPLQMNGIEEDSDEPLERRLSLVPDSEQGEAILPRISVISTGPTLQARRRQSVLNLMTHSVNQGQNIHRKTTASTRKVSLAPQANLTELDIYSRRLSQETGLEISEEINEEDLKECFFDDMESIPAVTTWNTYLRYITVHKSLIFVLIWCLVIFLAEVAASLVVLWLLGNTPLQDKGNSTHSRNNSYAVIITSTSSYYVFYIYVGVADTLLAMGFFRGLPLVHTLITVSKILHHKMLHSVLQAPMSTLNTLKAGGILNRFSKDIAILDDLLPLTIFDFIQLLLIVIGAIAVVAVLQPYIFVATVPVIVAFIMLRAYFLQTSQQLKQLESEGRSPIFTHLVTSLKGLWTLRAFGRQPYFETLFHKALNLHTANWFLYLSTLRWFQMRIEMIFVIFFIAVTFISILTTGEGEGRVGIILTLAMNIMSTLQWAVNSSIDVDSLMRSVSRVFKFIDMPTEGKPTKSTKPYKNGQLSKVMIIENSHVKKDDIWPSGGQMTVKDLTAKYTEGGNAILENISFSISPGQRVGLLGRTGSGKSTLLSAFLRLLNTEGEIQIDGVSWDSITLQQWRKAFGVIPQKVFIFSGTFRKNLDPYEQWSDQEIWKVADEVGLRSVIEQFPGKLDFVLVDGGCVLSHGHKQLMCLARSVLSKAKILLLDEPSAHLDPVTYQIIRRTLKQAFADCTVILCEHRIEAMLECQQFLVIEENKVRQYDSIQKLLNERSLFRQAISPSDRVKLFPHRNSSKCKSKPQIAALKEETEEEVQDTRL
T1 sequence (P13569 whole entry G551D): as the sequence (P13569 whole entry G178R) above, with R178G, G551D counted along it
T5 sequence (P13569 whole entry S549N): as the sequence (P13569 whole entry G178R) above, with R178G, S549N counted along it

`Nc1cc(S(=O)(=O)c2ccc(OC(F)(F)F)cc2)cnc1C(=O)N[C@@H]1COC[C@H]1O` (racemic) [Compound 74, rac-3-amino-N-[(3R,4S)-4-hydroxytetrahydrofuran-3-yl]-5-{[4-(trifluoromethoxy)phenyl]sulfonyl}pyridine-2-carboxamide]: the “% Activation” value is 65.0% at CFTR G551D mutant; 110.0% at CFTR ΔF508 mutant; 84.3% at CFTR-G178R; 100.0% at CFTR-R117H; 91.4% at CFTR-S549N; 86.8% on CFTR-G1349D. Further, the pEC50 was 6.08 at CFTR G551D mutant; 7.76 at CFTR ΔF508 mutant; 6.46 on CFTR-G178R; 6.06 on CFTR-R117H; 6.25 on CFTR-S549N; 6.29 at CFTR-G1349D.

Turning to `Nc1cc(S(=O)(=O)c2ccc(C(F)(F)F)cc2)cnc1C(=O)NCC(F)(F)CO` [Compound 241, 3-amino-N-(2,2-difluoro-3-hydroxypropyl)-5-{[4-(trifluoromethyl)phenyl]sulfonyl}pyridine-2-carboxamide], the “% Activation” value at CFTR G551D mutant is listed as 65.9%; at CFTR ΔF508 mutant it was 117.0%; at CFTR-G178R, 84.5%; at CFTR-R117H, 103.0%; at CFTR-S549N, 90.7%; on CFTR-G1349D, 71.0%. In addition, the pEC50 was 6.17 on CFTR G551D mutant; 7.94 at CFTR ΔF508 mutant; 6.30 on CFTR-G178R; 6.22 at CFTR-R117H; 6.16 at CFTR-S549N; 5.95 on CFTR-G1349D.

As for `Nc1cc(S(=O)(=O)c2ccc(C(F)(F)F)cc2)cnc1C(=O)NCCO` [Compound 217, 3-amino-N-(2-hydroxyethyl)-5-{[4-(trifluoromethyl)phenyl]sulfonyl}pyridine-2-carboxamide], the “% Activation” value on CFTR G551D mutant is on record as 51.8%; at CFTR ΔF508 mutant, 103.4%; on CFTR-G178R, 63.9%; on CFTR-R117H, 92.1%; at CFTR-S549N, 55.9%; on CFTR-G1349D, 62.9%. The pEC50 is 5.52 on CFTR G551D mutant; 7.44 on CFTR ΔF508 mutant; 6.03 on CFTR-G178R; 6.12 on CFTR-R117H; 6.40 at CFTR-S549N; 5.87 at CFTR-G1349D.

For the compound `CC(C)(C)C(O)CNC(=O)c1ncc(S(=O)(=O)c2ccc(OC(F)(F)F)cc2)cc1N` (stereo not drawn) [Compound 16, 3-amino-N-(2-hydroxy-3,3-dimethylbutyl)-5-{[4-(trifluoromethoxy)phenyl]sulfonyl}pyridine-2-carboxamide], the “% Activation” value is given as 96.2% on CFTR G551D mutant; 106.5% on CFTR ΔF508 mutant; 102.0% on CFTR-G178R; 112.0% on CFTR-R117H; 114.0% at CFTR-S549N; 99.6% at CFTR-G1349D. For the same compound, the pEC50 at CFTR G551D mutant is 5.78; at CFTR ΔF508 mutant, 7.80; at CFTR-G178R, 6.00; on CFTR-R117H, 6.37; at CFTR-S549N, under 5.48; on CFTR-G1349D, 6.16.

As for `Nc1cc(S(=O)(=O)c2ccc(F)cc2)c(-c2ccc(F)cc2)nc1C(=O)NC[C@@H](O)C(F)(F)F` [Compound 259, 3-amino-6-(4-fluorophenyl)-5-[(4-fluorophenyl)sulfonyl]-N-[(2R)-3,3,3-trifluoro-2-hydroxypropyl]pyridine-2-carboxamide], the “% Activation” value stood at 92.6% on CFTR G551D mutant; 102.5% on CFTR ΔF508 mutant; 97.2% at CFTR-G178R; 126.0% on CFTR-R117H; 105.0% on CFTR-S549N; 91.0% at CFTR-G1349D. For the same compound, the pEC50 at CFTR G551D mutant is 5.95; at CFTR ΔF508 mutant, 8.37; on CFTR-G178R it was 6.83; at CFTR-R117H, 6.65; at CFTR-S549N, 7.13; at CFTR-G1349D it was 6.76.

For the compound `Nc1cc(S(=O)(=O)c2ccc(OC(F)(F)F)cc2)cnc1C(=O)Nc1cc[nH]n1` [Compound 291, 3-amino-N-(1H-pyrazol-3-yl)-5-{[4-(trifluoromethoxy)phenyl]sulfonyl}pyridine-2-carboxamide], the “% Activation” value stood at 44.7% on CFTR G551D mutant; 98.2% on CFTR ΔF508 mutant; 79.3% on CFTR-G178R; 74.2% at CFTR-R117H; 75.6% at CFTR-S549N; 79.8% at CFTR-G1349D. Moreover, the negative logarithm of the EC50 (pEC50) at CFTR G551D mutant was 6.62; at CFTR ΔF508 mutant it was 8.26; at CFTR-G178R, 6.96; at CFTR-R117H, 6.81; at CFTR-S549N it was 7.04; on CFTR-G1349D it was 6.83.

Regarding `C[C@H](O)CNC(=O)c1ncc(S(=O)(=O)c2ccccc2OC(F)(F)F)cc1N` [Compound 82, 3-amino-N-[(2S)-2-hydroxypropyl]-5-{[2-(trifluoromethoxy)phenyl]sulfonyl}pyridine-2-carboxamide], the “% Activation” value came out at 89.9% at CFTR G551D mutant; 106.0% on CFTR ΔF508 mutant; 106.7% on CFTR-G178R; 128.3% at CFTR-R117H; 106.9% on CFTR-S549N; 92.74% on CFTR-G1349D. For the same compound, the pEC50 at CFTR G551D mutant is 6.10; at CFTR ΔF508 mutant, 8.57; at CFTR-G178R it was 7.07; at CFTR-R117H, 5.98; at CFTR-S549N, 6.92; on CFTR-G1349D it was 6.99.

In the case of `Nc1cc(S(=O)(=O)c2ccc(OC(F)(F)F)cc2)cnc1C(=O)N1CC(O)(C(F)(F)F)C1` [Compound 79, (3-amino-5-{[4-(trifluoromethoxy)phenyl]sulfonyl}pyridin-2-yl)[3-hydroxy-3-(trifluoromethyl)azetidin-1-yl]methanone], the “% Activation” value is on record as 48.9% at CFTR G551D mutant; 99.5% on CFTR ΔF508 mutant; 74.5% at CFTR-G178R; 103.1% on CFTR-R117H; 88.09% on CFTR-S549N; 83.08% on CFTR-G1349D. Also, the pEC50 at CFTR G551D mutant is 6.59; at CFTR ΔF508 mutant it was 8.48; at CFTR-G178R, 7.50; on CFTR-R117H it was 7.65; on CFTR-S549N it was 7.35; at CFTR-G1349D, 7.21.
